Consider 87 sequences from the OligoGym collection.

“And” between values parts separate entries of the source, which are not always exact repeats. Equal entries are not always repeated. After the bases stand the sugars from the 5' end (letter, count) and the backbone: PS all phosphorothioate, else s phosphorothioate and o phosphodiester by linkage. Methylation of C is not given here. e = 2'-O-(2-methoxyethyl) (MOE); k = constrained ethyl (cEt); d = 2'-deoxy (DNA)

The first data set addresses IRF4. Conditions: ASO, KMS11, 0.2 µM.
Regarding ATACTGGTTGGTTGGC (sugars k3 d10 k3, PS), the target mRNA inhibition is 74% and 76%.

Still in this data set, the particulars now being: ASO, MM.1R, 0.0625 µM.
For the sequence ACGAGGTTGCCGAGAT (sugars k3 d10 k3, PS), the target mRNA inhibition was -16%.
With “TGTGTATTACTCTTAG (sugars kkdddddddddkekek, PS)”, the target mRNA inhibition came out at 19%.
Still for that read-out and setting: to ATACTGGTTGGTTGGC (sugars k3 d10 k3, PS) belongs 51%.

Staying with this data set, now noted: ASO, MM.1R, 0.074 µM.
For the sequence “CTCTATAGTGTTCCAG (sugars k3 d9 k3 e1, PS)”, the target mRNA inhibition is 14%.

Still in this data set, the particulars now being: ASO, MM.1R, 0.222 µM.
In the case of “CTCTATAGTGTTCCAG (sugars k3 d9 k3 e1, PS)”, the target mRNA inhibition stood at 30%.

Staying with this data set, now noted: ASO, MM.1R, 0.25 µM.
With ACGAGGTTGCCGAGAT (sugars k3 d10 k3, PS), the target mRNA inhibition is 7%.
The same measure, in the same setting: to “TGTGTATTACTCTTAG (sugars kkdddddddddkekek, PS)” belongs 32%; to ATACTGGTTGGTTGGC (sugars k3 d10 k3, PS), 61%.

Staying with this data set, now noted: ASO, MM.1R, 0.666 µM.
“CTCTATAGTGTTCCAG (sugars k3 d9 k3 e1, PS)”: the target mRNA inhibition worked out at 54%.

The same data set, now with this note: ASO, MM.1R, 1 µM.
As for CAAAAGGTAGTAGACC (sugars k3 d10 k3, PS), the target mRNA inhibition worked out at 11%.
On the same count and under the same terms, with “GTGTCTAAAGTCCCAT (sugars kkdddddddddkdkdk, PS)” the figure was 20% and 5%.
Same read-out and setting: with ACGAGGTTGCCGAGAT (sugars k3 d10 k3, PS) the figure was 62% and 41%; with GTGCTCTTACAGCCTC (sugars k3 d10 k3, PS), -15%.
The same measure, in the same setting: with “GTGTCTAAAGTCCCAT (sugars kkdddddddddekeke, PS)” the figure was 32% and 23%; with TCCCGACACGCGCCGC (sugars k3 d10 k3, PS), -12%; with CTTAGGCACATCAATG (sugars k3 d10 k3, PS), 8%.
As to CAATCTTAACCTGGAG (sugars k3 d10 k3, PS), the target mRNA inhibition is 40%.
The same measure, in the same setting: to CGCAGGAGCGCGGAGG (sugars k3 d10 k3, PS) belongs -28%; to TGTGCAAAACCAGTAC (sugars k3 d10 k3, PS), -20%.
Same read-out and setting: with GGTCAACACTTGGAGA (sugars k3 d10 k3, PS) the figure was -23%.
The same measure, in the same setting: to TTTAAAATATCGCCCA (sugars k3 d10 k3, PS) belongs -1%; to “TGTGATAGCTGAGCTG (sugars kkddddddddddkeke, PS)”, 16%.
In the case of “CTCTATAGTGTTCCAG (sugars k3 d9 k3 e1, PS)”, the target mRNA inhibition stood at 65%.
Same read-out and setting: to “TGTAGTATGAGAAACG (sugars kkkdddddddddkeke, PS)” belongs 29%; to “GGAAGTTTACACTGGA (sugars kddddddddddkekek, PS)”, 33%; to “CTGTTACCGATGCTTC (sugars kddddddddddkekek, PS)”, 36% and 26%.
On the same count and under the same terms, with AAACATCCAAAGGGTT (sugars k3 d10 k3, PS) the figure was -1%.
On the same count and under the same terms, with CCTTACCTCGCCCTGG (sugars k3 d10 k3, PS) the figure was -31%; with ATACTGGTTGGTTGGC (sugars k3 d10 k3, PS), 69% and 75%.
For the sequence “AGTGACTTGCATCCAT (sugars kddddddddddkekek, PS)”, the target mRNA inhibition was determined as 2%.
The same measure, in the same setting: with “TGTAGTATGAGAAACG (sugars kddddddddddkekek, PS)” the figure was 7%.
Turning to “GCAGTGATGTCAGGTT (sugars kdddddddddkekeke, PS)”, the target mRNA inhibition was 33%.
The same measure, in the same setting: to “AAGCATTTTATCATCC (sugars e1 k2 d9 k2 e2, PS)” belongs 14%.
Still for that read-out and setting: to “TGATAGCTGAGCTGAT (sugars k2 d9 e3 k2, PS)” belongs -2%; to TCCCATCGAATCTGCC (sugars k3 d10 k3, PS), -5%; to “TCAGTTTGTGAAGCAT (sugars kkdddddddddkdkdk, PS)”, 25%.
For the sequence “AGTGTCTAAAGTCCCA (sugars k2 d9 e3 k2, PS)”, the target mRNA inhibition is 26% and 12%.
Still for that read-out and setting: with CAAGCAGTGATGTCAG (sugars k3 d10 k3, PS) the figure was 60% and 51%; with “TTCATGTAAAGTCTGC (sugars k2 d9 e3 k2, PS)”, 27% and 35%; with “AAGCATTTTATCATCC (sugars kkdddddddddkdkdk, PS)”, 3%.
The same measure, in the same setting: to TTGATGTGATAGCTGA (sugars k3 d10 k3, PS) belongs 55%.

Staying with this data set, now noted: ASO, MM.1R, 2 µM.
For “CTCTATAGTGTTCCAG (sugars k3 d9 k3 e1, PS)”, the target mRNA inhibition was found to be 76%.

Still in this data set, the particulars now being: ASO, MM.1R, 4 µM.
Turning to ACGAGGTTGCCGAGAT (sugars k3 d10 k3, PS), the target mRNA inhibition was 78%.
Consider “TGTGTATTACTCTTAG (sugars kkdddddddddkekek, PS)”, for which the target mRNA inhibition came to 85%.
Still for that read-out and setting: with ATACTGGTTGGTTGGC (sugars k3 d10 k3, PS) the figure was 86%.

The data set is the same for the next values; noted with them: ASO, SK-MEL-28, 0.185 µM.
For ACTATAATTGGCACGA (sugars k3 d10 k3, PS), the target mRNA inhibition turned out to be 6%.

Still in this data set, the particulars now being: ASO, SK-MEL-28, 4 µM.
On to CTCTGCTCTGCACTCG (sugars k3 d10 k3, PS), for which the target mRNA inhibition is 41%.
On the same count and under the same terms, with AGTACGAGCACATGTC (sugars k3 d10 k3, PS) the figure was 34%; with GAACAGATAGTTAAGT (sugars k3 d10 k3, PS), 17%; with GAAGAATTTTAGCATC (sugars k3 d10 k3, PS), 56%.
The same measure, in the same setting: to CAGAAAATATGTAACG (sugars k3 d10 k3, PS) belongs 22%; to GCCCAAGCCTTGAAGA (sugars k3 d10 k3, PS), 15%; to AATTACTGCTTGAGGT (sugars k3 d10 k3, PS), 58%.
Still for that read-out and setting: with GTCCATGGGAGATCCG (sugars k3 d10 k3, PS) the figure was 52%.
As to GCGCATAGGTCCTTCA (sugars k3 d10 k3, PS), the target mRNA inhibition was found to be 63%.
With TTCATAGCTAGTTCAT (sugars k3 d10 k3, PS), the target mRNA inhibition came out at 44%.
On the same count and under the same terms, with TGCCTGAACTGTGTAA (sugars k3 d10 k3, PS) the figure was 35%.
On the same count and under the same terms, to CTCCATCAATCATGAT (sugars k3 d10 k3, PS) belongs 33%; to GCTGTCGATCTGGTCG (sugars k4 d8 k4, PS), 6%; to CCTCGCTCAAAGACCA (sugars k3 d10 k3, PS), 50%.
For the sequence GGGCTGTCCCTAGTGC (sugars k3 d10 k3, PS), the target mRNA inhibition was -9%.
On the same count and under the same terms, to GATGCAGCTGGCCACA (sugars k3 d10 k3, PS) belongs 73%; to CTTCACTCAGCAAGTG (sugars k3 d10 k3, PS), 43%.
As to TGGCCTTCCTGGCGGA (sugars k3 d10 k3, PS), the target mRNA inhibition was found to be 9%.
Same read-out and setting: to GTACTTTCTCAAAACC (sugars k3 d10 k3, PS) belongs 70%; to AGGGTCACAGGTAAGG (sugars k3 d10 k3, PS), 68%.
The same measure, in the same setting: to GGAGAATTAAGAAGAC (sugars k3 d10 k3, PS) belongs 32%; to GCTAACTGGCCTCAAA (sugars k3 d10 k3, PS), 9%; to CATGGCAGTGGAGCTC (sugars k3 d10 k3, PS), 87% and 82%.
Still for that read-out and setting: to ACTATAATTGGCACGA (sugars k3 d10 k3, PS) belongs 69%; to CACCGAACACACCAGG (sugars k3 d10 k3, PS), 20%.
Consider TCCCAGTAGATCCTGC (sugars k3 d10 k3, PS), for which the target mRNA inhibition came to 40%.
In the case of AACTTACAGGACTATT (sugars k3 d10 k3, PS), the target mRNA inhibition worked out at 13%.
Still for that read-out and setting: with AATAAACACCCCTTCT (sugars k3 d10 k3, PS) the figure was 21%.
Same read-out and setting: with AGGGAATCCCTTATTA (sugars k3 d10 k3, PS) the figure was 6%; with ACTCAATGTGCACCTT (sugars k3 d10 k3, PS), 29%.
Still for that read-out and setting: to CTCCTTTTTTGGCTCC (sugars k4 d8 k4, PS) belongs 7%.
Regarding GAACAATCCTGTACAC (sugars k3 d10 k3, PS), the target mRNA inhibition is -5%.
Same read-out and setting: with GAAAGGAGGTAGTGGC (sugars k3 d10 k3, PS) the figure was 23%; with CAAGGCTACAGGCACG (sugars k3 d10 k3, PS), 51%; with CAAATTAAAGAGCGCA (sugars k3 d10 k3, PS), 57%.
Same read-out and setting: to GGCCGCCGTGAGCTTG (sugars k3 d10 k3, PS) belongs 3%; to GCTCATCCCGTCCAGC (sugars k3 d10 k3, PS), 15%.
Still for that read-out and setting: to CACATTTGAGAGCTAC (sugars k3 d10 k3, PS) belongs 74%; to GGGCAGGTTTCATTTC (sugars k3 d10 k3, PS), 32%.
As for TCCCGGAGGAAGTCCC (sugars k3 d10 k3, PS), the target mRNA inhibition stood at 30%.
In the case of GATAAGAAGCACTGGC (sugars k3 d10 k3, PS), the target mRNA inhibition turned out to be 63%.
Turning to GAACAGGAAGCCACTA (sugars k3 d10 k3, PS), the target mRNA inhibition turned out to be 23%.
Still for that read-out and setting: to TGGCGGATAGATCTGT (sugars k3 d10 k3, PS) belongs 34%.
Still for that read-out and setting: with AGCCCTTACCTCGCCC (sugars k3 d10 k3, PS) the figure was 25%; with CTTGCCGCTGTCGATC (sugars k3 d10 k3, PS), 25%.
For the sequence GAAACCGCTGGCAGGT (sugars k3 d10 k3, PS), the target mRNA inhibition was found to be 50%.
Same read-out and setting: with ACCCAGCTAATGAGAG (sugars k3 d10 k3, PS) the figure was 35%; with CAGATGGCATGCGAAT (sugars k3 d10 k3, PS), 35%.
Same read-out and setting: to CAGCACCGTGTGGAAA (sugars k3 d10 k3, PS) belongs 51%; to GGCAGACCTTATGCTT (sugars k3 d10 k3, PS), 21%; to TTATTTGTGGCTCAAC (sugars k3 d10 k3, PS), 18%.
Still for that read-out and setting: with AATGTAGGGATACAGC (sugars k3 d10 k3, PS) the figure was 62%; with CAAGCTTTCATTTGGG (sugars k3 d10 k3, PS), 74%; with TATCATATGCCCAATA (sugars k3 d10 k3, PS), 32%.

Still in this data set, the particulars now being: ASO, SK-MEL-28, 5 µM.
As to ACTATAATTGGCACGA (sugars k3 d10 k3, PS), the target mRNA inhibition was 72%.

The data set is the same for the next values; noted with them: ASO, SK-MEL-28, 15 µM.
Consider ACTATAATTGGCACGA (sugars k3 d10 k3, PS), for which the target mRNA inhibition came out at 90%.
